Results: patent US20110076261A1, “Antifungal Drug Delivery System” (priority 2007, published 2011)
Like-named read-outs stand apart in the source and are kept apart here. Values belong to the molecule of their own block, whether it stands above or below them.

Assays:
[1] = at 25° C.; cited from earlier work
[2] = cited from earlier work
[3] = Excerpt: Accordingly, when looking at a particular acid, the percent of ionization of that acid can be determined by the following formula: […]

SMILES: O=C[C@H](O)[C@@H](O)[C@H](O)[C@H](O)C(=O)O [Glucoronic, glucuronic acid]
- pKa [1]: 3.28

SMILES: O=C(O)C(O)c1ccccc1 (centres unmarked) [Mandelic, mandelic acid]
- pKa [1]: 3.85

- percent ionized ([3]; in water, pH 2.2): approximately 9%
- pH−pKa value ([3]; pH 2.2): −0.77
- pH−pKa value ([3]; pH 5): 2.03
- percent ionized ([3]; pH raised to 5): approximately 99%
SMILES: O=C(O)c1ccccc1O [Salicylic, salicylic acid]
- normal pH in water [2]: 2.2

SMILES: NC(N)=O [Urea]
- pKa [1]: 0.10
